Reference: paper doi:10.1101/2025.01.28.635346v1 (bioRxiv, 2025)
Bridge positions count the residues as written; N and C are the ends. Peptide text beside a SMILES is read from it.

Legend:
[1] = Pharmacokinetics in female Balb/c mice; assay type: in vivo, mouse
ADRB2 = ADRB2 (Homo sapiens, UniProt P07550); assay: Safetyscan47 GPCR cAMP, Antagonist; assay type: cell-based
HTR3A = target: T1, HTR3A (Homo sapiens, UniProt P46098); assay: Safetyscan47 Ion Channel, Blocker; assay type: cell-based
T1 sequence (P46098 24-478): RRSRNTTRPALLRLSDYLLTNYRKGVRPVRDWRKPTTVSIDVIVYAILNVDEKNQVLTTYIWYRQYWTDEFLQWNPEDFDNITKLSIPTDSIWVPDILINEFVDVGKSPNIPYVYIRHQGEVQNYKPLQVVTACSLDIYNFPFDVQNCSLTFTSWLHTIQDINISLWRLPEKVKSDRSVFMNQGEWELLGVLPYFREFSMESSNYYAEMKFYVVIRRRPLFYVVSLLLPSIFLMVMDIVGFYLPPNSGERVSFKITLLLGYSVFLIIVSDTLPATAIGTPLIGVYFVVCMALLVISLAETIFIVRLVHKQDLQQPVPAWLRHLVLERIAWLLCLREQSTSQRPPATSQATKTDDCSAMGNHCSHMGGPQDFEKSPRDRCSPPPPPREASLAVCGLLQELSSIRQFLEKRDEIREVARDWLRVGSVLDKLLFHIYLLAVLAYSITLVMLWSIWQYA

KvLQT1/minK = KvLQT1/minK (Homo sapiens, UniProt P15382+P51787); assay: Safetyscan47 Ion Channel, Opener; assay type: cell-based
NMDAR (1A/2B) = NMDAR (1A/2B) (Homo sapiens, UniProt Q05586+Q13224); assay: Safetyscan47 Ion Channel, Opener; assay type: cell-based
AR = target: T2, AR (Homo sapiens, UniProt P10275); assay: Safetyscan47 NHR Nuclear Translocation, Agonist; assay type: cell-based
T2 sequence (P10275 1-920): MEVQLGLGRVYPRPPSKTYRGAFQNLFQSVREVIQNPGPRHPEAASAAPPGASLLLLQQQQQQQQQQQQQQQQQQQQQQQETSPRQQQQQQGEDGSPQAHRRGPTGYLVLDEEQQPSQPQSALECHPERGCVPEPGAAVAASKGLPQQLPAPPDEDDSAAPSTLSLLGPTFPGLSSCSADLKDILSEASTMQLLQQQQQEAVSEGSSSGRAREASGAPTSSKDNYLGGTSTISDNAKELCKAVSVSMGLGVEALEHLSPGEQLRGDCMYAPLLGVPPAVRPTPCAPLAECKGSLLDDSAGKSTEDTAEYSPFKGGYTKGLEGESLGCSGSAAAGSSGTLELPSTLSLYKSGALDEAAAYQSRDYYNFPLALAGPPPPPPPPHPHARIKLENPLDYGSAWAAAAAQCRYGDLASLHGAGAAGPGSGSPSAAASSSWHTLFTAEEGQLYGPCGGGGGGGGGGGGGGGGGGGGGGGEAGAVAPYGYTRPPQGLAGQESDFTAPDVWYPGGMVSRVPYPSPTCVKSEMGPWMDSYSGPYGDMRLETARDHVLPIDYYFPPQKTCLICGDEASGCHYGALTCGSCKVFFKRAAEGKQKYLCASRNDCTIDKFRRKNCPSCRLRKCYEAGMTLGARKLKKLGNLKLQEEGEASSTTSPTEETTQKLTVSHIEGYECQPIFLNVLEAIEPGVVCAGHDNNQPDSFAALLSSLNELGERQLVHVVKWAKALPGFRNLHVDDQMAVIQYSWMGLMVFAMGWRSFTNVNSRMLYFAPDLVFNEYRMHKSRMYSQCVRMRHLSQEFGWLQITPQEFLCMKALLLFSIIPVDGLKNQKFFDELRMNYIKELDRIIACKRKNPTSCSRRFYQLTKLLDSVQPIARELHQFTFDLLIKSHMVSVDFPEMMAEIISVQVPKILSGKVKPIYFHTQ

[2] = IP 30 mg/kg, mouse, animal 11F031
[3] = IP 30 mg/kg, mouse, animal 11F032
[4] = IP 30 mg/kg, mouse, animal 11F033
[5] = Table 3SA: IP 30 mg/kg, Mean N=2
[6] = female, Balb/c, mouse, plasma, ip, 30 mg/kg

Sequence of KvLQT1/minK (P51787 whole entry): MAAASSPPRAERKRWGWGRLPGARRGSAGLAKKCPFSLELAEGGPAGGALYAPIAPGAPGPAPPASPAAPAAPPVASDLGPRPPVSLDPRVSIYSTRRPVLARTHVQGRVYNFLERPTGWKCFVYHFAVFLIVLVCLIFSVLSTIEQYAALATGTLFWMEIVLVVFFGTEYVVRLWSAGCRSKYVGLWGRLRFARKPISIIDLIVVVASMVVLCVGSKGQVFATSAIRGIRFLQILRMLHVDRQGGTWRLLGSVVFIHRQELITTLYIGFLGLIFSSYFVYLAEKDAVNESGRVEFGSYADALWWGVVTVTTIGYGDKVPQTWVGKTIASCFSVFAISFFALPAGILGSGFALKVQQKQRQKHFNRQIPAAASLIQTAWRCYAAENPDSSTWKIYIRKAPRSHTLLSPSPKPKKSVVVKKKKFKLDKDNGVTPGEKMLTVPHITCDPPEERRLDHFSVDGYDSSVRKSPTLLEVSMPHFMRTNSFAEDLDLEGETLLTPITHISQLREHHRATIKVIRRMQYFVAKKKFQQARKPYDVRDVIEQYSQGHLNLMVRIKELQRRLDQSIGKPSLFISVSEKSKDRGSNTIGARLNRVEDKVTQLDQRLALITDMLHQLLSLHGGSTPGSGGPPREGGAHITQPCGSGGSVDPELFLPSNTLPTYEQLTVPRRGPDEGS
Sequence of NMDAR (1A/2B) (Q13224 27-1484, other chains not shown): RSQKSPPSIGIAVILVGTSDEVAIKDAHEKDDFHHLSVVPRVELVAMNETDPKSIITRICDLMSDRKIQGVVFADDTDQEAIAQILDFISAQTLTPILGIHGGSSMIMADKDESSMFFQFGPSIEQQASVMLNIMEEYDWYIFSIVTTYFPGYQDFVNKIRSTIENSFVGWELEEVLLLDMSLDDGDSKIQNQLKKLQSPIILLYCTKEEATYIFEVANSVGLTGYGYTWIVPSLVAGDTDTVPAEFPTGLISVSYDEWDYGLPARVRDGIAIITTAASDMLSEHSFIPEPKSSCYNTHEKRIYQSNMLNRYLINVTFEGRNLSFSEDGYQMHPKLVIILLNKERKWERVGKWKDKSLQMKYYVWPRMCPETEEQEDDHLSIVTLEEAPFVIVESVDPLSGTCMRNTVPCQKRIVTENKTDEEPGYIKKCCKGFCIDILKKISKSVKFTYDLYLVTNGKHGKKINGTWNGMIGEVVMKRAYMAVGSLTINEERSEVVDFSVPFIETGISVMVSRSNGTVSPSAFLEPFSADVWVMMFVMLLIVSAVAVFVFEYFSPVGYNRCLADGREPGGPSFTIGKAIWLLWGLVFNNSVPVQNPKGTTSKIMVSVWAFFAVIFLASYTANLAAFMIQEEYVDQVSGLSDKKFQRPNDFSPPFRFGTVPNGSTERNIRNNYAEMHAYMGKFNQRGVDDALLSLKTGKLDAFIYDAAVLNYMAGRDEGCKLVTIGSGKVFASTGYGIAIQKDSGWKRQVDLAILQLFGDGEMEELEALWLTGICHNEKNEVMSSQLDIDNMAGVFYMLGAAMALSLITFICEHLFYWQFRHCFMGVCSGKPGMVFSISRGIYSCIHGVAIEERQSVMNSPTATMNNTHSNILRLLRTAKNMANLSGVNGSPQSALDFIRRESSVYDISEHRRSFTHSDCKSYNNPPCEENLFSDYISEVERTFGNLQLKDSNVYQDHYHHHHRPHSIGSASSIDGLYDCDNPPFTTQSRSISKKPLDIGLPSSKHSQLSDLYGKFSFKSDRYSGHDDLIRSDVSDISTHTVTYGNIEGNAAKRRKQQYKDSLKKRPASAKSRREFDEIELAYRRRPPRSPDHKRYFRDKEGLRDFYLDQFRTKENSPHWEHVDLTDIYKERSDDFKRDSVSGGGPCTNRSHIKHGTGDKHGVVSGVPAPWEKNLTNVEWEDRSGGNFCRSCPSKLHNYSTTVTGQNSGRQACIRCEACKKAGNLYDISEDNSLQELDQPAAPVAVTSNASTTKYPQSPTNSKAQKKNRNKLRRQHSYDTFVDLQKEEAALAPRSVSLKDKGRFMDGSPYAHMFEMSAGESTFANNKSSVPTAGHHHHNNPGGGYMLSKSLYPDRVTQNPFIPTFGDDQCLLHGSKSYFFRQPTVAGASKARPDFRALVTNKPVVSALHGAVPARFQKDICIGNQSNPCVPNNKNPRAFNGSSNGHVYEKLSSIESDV
Sequence of ADRB2 (P07550 whole entry): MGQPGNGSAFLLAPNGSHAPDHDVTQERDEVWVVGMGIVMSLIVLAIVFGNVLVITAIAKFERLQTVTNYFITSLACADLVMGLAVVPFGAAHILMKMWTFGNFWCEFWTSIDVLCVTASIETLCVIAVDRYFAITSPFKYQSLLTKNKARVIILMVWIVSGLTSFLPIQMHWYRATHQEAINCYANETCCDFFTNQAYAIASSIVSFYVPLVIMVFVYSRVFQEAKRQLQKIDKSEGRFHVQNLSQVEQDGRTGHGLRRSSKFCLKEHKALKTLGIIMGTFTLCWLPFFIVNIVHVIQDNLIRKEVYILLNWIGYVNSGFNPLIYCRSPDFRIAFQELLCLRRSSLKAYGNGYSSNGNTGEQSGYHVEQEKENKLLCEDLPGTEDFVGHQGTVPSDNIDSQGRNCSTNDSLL

Compound `CC[C@H](C)[C@H](NC(=O)[C@H](CC(C)C)NC(=O)[C@H](CC(=O)O)NC(=O)CNC(=O)[C@H](CCCNC(=N)N)NC(=O)[C@@H](NC(=O)[C@H](Cc1ccccc1)NC(=O)[C@H](Cc1ccc(O)cc1)NC(=O)[C@@H]1CCC(=O)NCC(=O)NCC(=O)N[C@@H](CCCNC(=N)N)C(=O)NCC(=O)N[C@@H](Cc2c[nH]cn2)C(=O)N[C@@H](C(C)C)C(=O)N2CCC[C@H]2C(=O)N1)C(C)C)C(=O)N[C@@H](CO)C(=O)N[C@@H](Cc1ccccc1)C(=O)N[C@@H](Cc1ccc(O)cc1)C(=O)N[C@@H](CCCCN)C(=O)O` [lassotide 36] (GGRGHVPEYFVRGDLISFYK-OH; lactam N-8) has an AUCINF [1, 2] of 64500, an AUClast [1, 2] of 64500 and a CL/F [1, 2] of 7.75. For the same compound, the Cmax [1, 2] was 21000, the Tmax [1, 2] was 2.0 and the Vz/F [1, 2] was 363. For the same compound, the t1/2 [1, 2] was 0.54, the AUCINF [1, 3] was 71700 and the AUClast [1, 3] was 69400. It also gave a CL/F [1, 3] of 6.97, a Cmax [1, 3] of 27300 and a Tmax [1, 3] of 1.0. For the same compound, the Vz/F [1, 3] was 389, the t1/2 [1, 3] was 0.64 and the AUClast [1, 4] was 885. The Cmax [1, 4] was 10600, the Tmax [1, 4] was 0.17 and the Vz ([1]; Mouse, 30 mg/kg IP, mean) was 0.4 L/kg. The AUCINF [1, 5] was 68100, the Vz/F [1, 5] was 376 and the AUC(0-t) [1, 6] was 44900 ng·h/mL. It also gave a CL/F [1, 6] of 7.36 mL/min/kg, a Cmax [1, 6] of 19600 ng/mL and a Tmax [1, 6] of 63.6 min. It also gave a half-life [1, 6] of 35.5 min, an IC50 (ADRB2) greater than 45 µM and an Emax (ADRB2; read-out: Max Response) of 8.93%. It also gave an IC50 (HTR3A) greater than 45 µM, an Emax (HTR3A; read-out: Max Response) of 8.73% and an EC50 (KvLQT1/minK) greater than 45 µM. For the same compound, the Emax (KvLQT1/minK; read-out: Max Response) was 0%, the EC50 (NMDAR (1A/2B)) was greater than 45 µM and the Emax (NMDAR (1A/2B); read-out: Max Response) was 4.66%. The EC50 (AR) was greater than 45 µM and the Emax (AR; read-out: Max Response) was 0%.
